ChEMBL document CHEMBL5724696, “Autophagy assay results for EUbOPEN Chemogenomics Library” (2024)

Key:
Assay type in all cases: functional, Homo sapiens
TERT-RPE1 = experiment: (§1) Here: values are normalized to the negative (DMSO; defined as 0% autophagy induction) and positive (250nM Torin1; mTOR inhibitor; defined as maximal inducer of autophagy = 100%) control compounds and represented as % of autophagy induction. […] The impact of autophagy induction on cells is complex and depends on the affected target. As such, the magnitude of a phenotype may not be equally mirrored in the %-value of autophagy induction and vice versa. The dynamics of the induction may indicate the mode of activation: e.g. activation via phosphorylation or a signaling cascade may occur fast, while activation via transcription factors may take considerably longer. […] Of note, treatment concentrations may be sub-optimal for specific compounds, leading to false negative annotations.; conditions: Culturing Media DMEM/F12 (1:1), 1 % Penicillin/Streptomycin, 10% Fetal bovin serum Add-On: No, Screening Media Control DMEM/F12 (1:1), Screening Media Samples DMEM/F12 (1:1)
U2OS [1] = experiment: as §1; conditions: Culturing Media DMEM, 1 % Penicillin/Streptomycin, 10% Fetal bovin serum Add-On: No, Screening Media Control DMEM, Screening Media Samples DMEM
U2OS [2] = experiment: as §1; conditions: Culturing Media DMEM, 1 % Penicillin/Streptomycin, 10% Fetal bovin serum Add-On: No, Screening Media Control DMEM, Screening Media Samples DMEM; remark: listed apart in the source
[3] = Compound Concentration 0.5 uM, Timepoint 12 hours
[4] = Compound Concentration 0.5 uM, Timepoint 24 hours
[5] = Compound Concentration 0.5 uM, Timepoint 36 hours
[6] = Compound Concentration 0.5 uM, Timepoint 60 hours
[7] = Compound Concentration 2 uM, Timepoint 12 hours
[8] = Compound Concentration 2 uM, Timepoint 24 hours
[9] = Compound Concentration 2 uM, Timepoint 36 hours
[10] = Compound Concentration 2 uM, Timepoint 60 hours
[11] = Compound Concentration 10 uM, Timepoint 12 hours
[12] = Compound Concentration 10 uM, Timepoint 24 hours
[13] = Compound Concentration 10 uM, Timepoint 36 hours
[14] = Compound Concentration 10 uM, Timepoint 60 hours

## COc1ccc(S(=O)(=O)c2cc(OC)ccc2S(=O)(=O)c2ccc([C@H](C)NS(C)(=O)=O)cc2)cc1
TERT-RPE1; [3]
  autophagy induction: -6.482%
TERT-RPE1; [4]
  autophagy induction: -9.039%
TERT-RPE1; [5]
  autophagy induction: -9.847%
TERT-RPE1; [6]
  autophagy induction: -11.3186%
TERT-RPE1; [7]
  autophagy induction: -6.676%
TERT-RPE1; [8]
  autophagy induction: -10.1921%
TERT-RPE1; [9]
  autophagy induction: -12.367%
TERT-RPE1; [10]
  autophagy induction: -10.4808%
TERT-RPE1; [11]
  autophagy induction: -5.338%
TERT-RPE1; [12]
  autophagy induction: -8.134%
TERT-RPE1; [13]
  autophagy induction: -7.872%
TERT-RPE1; [14]
  autophagy induction: -5.175%
U2OS [1]; [3]
  autophagy induction: 5.1145%
U2OS [1]; [4]
  autophagy induction: 1.212%
U2OS [1]; [5]
  autophagy induction: 0.9926%
U2OS [1]; [6]
  autophagy induction: 0.6082%
U2OS [1]; [7]
  autophagy induction: 2.687%
U2OS [1]; [8]
  autophagy induction: 1.009%
U2OS [1]; [9]
  autophagy induction: 1.125%
U2OS [1]; [10]
  autophagy induction: 0.5012%
U2OS [1]; [11]
  autophagy induction: -3.021%
U2OS [1]; [12]
  autophagy induction: -0.6189%
U2OS [1]; [13]
  autophagy induction: -0.5987%
U2OS [1]; [14]
  autophagy induction: -0.1479%
U2OS [2]; [3]
  autophagy induction: 5.054%
U2OS [2]; [4]
  autophagy induction: -4.288%
U2OS [2]; [5]
  autophagy induction: -4.858%
U2OS [2]; [6]
  autophagy induction: -2.8349%
U2OS [2]; [7]
  autophagy induction: 5.036%
U2OS [2]; [8]
  autophagy induction: -1.126%
U2OS [2]; [9]
  autophagy induction: 2.146%
U2OS [2]; [10]
  autophagy induction: -5.198%
U2OS [2]; [11]
  autophagy induction: 5.742%
U2OS [2]; [12]
  autophagy induction: 6.2878%
U2OS [2]; [13]
  autophagy induction: 4.231%
U2OS [2]; [14]
  autophagy induction: -3.951%

## COc1ccnc(N2CCC3(CCCN(Cc4c[nH]c5ccccc45)C3=O)CC2)n1
TERT-RPE1; [3]
  autophagy induction: -7.48%
TERT-RPE1; [4]
  autophagy induction: -12.7476%
TERT-RPE1; [5]
  autophagy induction: -12.8002%
TERT-RPE1; [6]
  autophagy induction: -18.0789%
TERT-RPE1; [7]
  autophagy induction: -3.2646%
TERT-RPE1; [8]
  autophagy induction: -8.655%
TERT-RPE1; [9]
  autophagy induction: -9.0208%
TERT-RPE1; [10]
  autophagy induction: -13.8382%
TERT-RPE1; [11]
  autophagy induction: -6.8833%
TERT-RPE1; [12]
  autophagy induction: -7.1204%
TERT-RPE1; [13]
  autophagy induction: -8.728%
TERT-RPE1; [14]
  autophagy induction: -9.531%
U2OS [1]; [3]
  autophagy induction: 6.725%
U2OS [1]; [4]
  autophagy induction: 2.47%
U2OS [1]; [5]
  autophagy induction: 0.2405%
U2OS [1]; [6]
  autophagy induction: -0.1995%
U2OS [1]; [7]
  autophagy induction: -9.208%
U2OS [1]; [8]
  autophagy induction: -5.729%
U2OS [1]; [9]
  autophagy induction: -5.289%
U2OS [1]; [10]
  autophagy induction: -3.421%
U2OS [1]; [11]
  autophagy induction: 2.478%
U2OS [1]; [12]
  autophagy induction: -1.409%
U2OS [1]; [13]
  autophagy induction: -1.806%
U2OS [1]; [14]
  autophagy induction: -1.259%
U2OS [2]; [3]
  autophagy induction: -0.8639%
U2OS [2]; [4]
  autophagy induction: 3.062%
U2OS [2]; [5]
  autophagy induction: -2.159%
U2OS [2]; [6]
  autophagy induction: 0.6428%
U2OS [2]; [7]
  autophagy induction: 14.1219%
U2OS [2]; [8]
  autophagy induction: 7.888%
U2OS [2]; [9]
  autophagy induction: 7.881%
U2OS [2]; [10]
  autophagy induction: 5.533%
U2OS [2]; [11]
  autophagy induction: -0.07351%
U2OS [2]; [12]
  autophagy induction: -0.8676%
U2OS [2]; [13]
  autophagy induction: 0.7982%
U2OS [2]; [14]
  autophagy induction: -3.188%

## C[C@H](CO)Nc1nc(SCc2cccc(Cl)c2F)nc2[nH]c(=O)sc12
TERT-RPE1; [3]
  autophagy induction: -10.6276%
TERT-RPE1; [4]
  autophagy induction: -12.9518%
TERT-RPE1; [5]
  autophagy induction: -15.2456%
TERT-RPE1; [6]
  autophagy induction: -20.3989%
TERT-RPE1; [7]
  autophagy induction: -5.728%
TERT-RPE1; [8]
  autophagy induction: -8.929%
TERT-RPE1; [9]
  autophagy induction: -11.3534%
TERT-RPE1; [10]
  autophagy induction: -17.566%
TERT-RPE1; [11]
  autophagy induction: -4.7585%
TERT-RPE1; [12]
  autophagy induction: -7.211%
TERT-RPE1; [13]
  autophagy induction: -11.193%
TERT-RPE1; [14]
  autophagy induction: -13.8782%
U2OS [1]; [3]
  autophagy induction: 5.635%
U2OS [1]; [4]
  autophagy induction: -1.036%
U2OS [1]; [5]
  autophagy induction: -0.662%
U2OS [1]; [6]
  autophagy induction: 0.3997%
U2OS [1]; [7]
  autophagy induction: -11.0736%
U2OS [1]; [8]
  autophagy induction: -4.995%
U2OS [1]; [9]
  autophagy induction: -2.19%
U2OS [1]; [10]
  autophagy induction: -0.5002%
U2OS [1]; [11]
  autophagy induction: 9.288%
U2OS [1]; [12]
  autophagy induction: 6.328%
U2OS [1]; [13]
  autophagy induction: 3.708%
U2OS [1]; [14]
  autophagy induction: 1.649%
U2OS [2]; [3]
  autophagy induction: -2.252%
U2OS [2]; [4]
  autophagy induction: -5.227%
U2OS [2]; [5]
  autophagy induction: -4.361%
U2OS [2]; [6]
  autophagy induction: 0.5148%
U2OS [2]; [7]
  autophagy induction: -3.135%
U2OS [2]; [8]
  autophagy induction: -6.665%
U2OS [2]; [9]
  autophagy induction: -3.053%
U2OS [2]; [10]
  autophagy induction: -3.815%
U2OS [2]; [11]
  autophagy induction: -3.826%
U2OS [2]; [12]
  autophagy induction: 1.119%
U2OS [2]; [13]
  autophagy induction: 5.199%
U2OS [2]; [14]
  autophagy induction: 9.3581%

## O=C(Cc1ccccc1)Nc1nc2ccc(Cl)cc2c2nc(-c3ccco3)nn12
TERT-RPE1; [3]
  autophagy induction: -7.39%
TERT-RPE1; [4]
  autophagy induction: -10.3716%
TERT-RPE1; [5]
  autophagy induction: -15.7815%
TERT-RPE1; [6]
  autophagy induction: -15.2628%
TERT-RPE1; [7]
  autophagy induction: -6.9816%
TERT-RPE1; [8]
  autophagy induction: -7.632%
TERT-RPE1; [9]
  autophagy induction: -7.871%
TERT-RPE1; [10]
  autophagy induction: -12.6626%
TERT-RPE1; [11]
  autophagy induction: -9.4005%
TERT-RPE1; [12]
  autophagy induction: 10.615%
TERT-RPE1; [13]
  autophagy induction: 24.2695%
TERT-RPE1; [14]
  autophagy induction: 38.8225%
U2OS [1]; [3]
  autophagy induction: -1.429%
U2OS [1]; [4]
  autophagy induction: -4.076%
U2OS [1]; [5]
  autophagy induction: -2.306%
U2OS [1]; [6]
  autophagy induction: 0.1335%
U2OS [1]; [7]
  autophagy induction: -7.203%
U2OS [1]; [8]
  autophagy induction: -1.219%
U2OS [1]; [9]
  autophagy induction: -0.343%
U2OS [1]; [10]
  autophagy induction: -0.2104%
U2OS [1]; [11]
  autophagy induction: -51.1859%
U2OS [1]; [12]
  autophagy induction: -16.9004%
U2OS [1]; [13]
  autophagy induction: -8.178%
U2OS [1]; [14]
  autophagy induction: -3.011%
U2OS [2]; [3]
  autophagy induction: 4.486%
U2OS [2]; [4]
  autophagy induction: 1.051%
U2OS [2]; [5]
  autophagy induction: 3.966%
U2OS [2]; [6]
  autophagy induction: 7.125%
U2OS [2]; [7]
  autophagy induction: -5.124%
U2OS [2]; [8]
  autophagy induction: -1.574%
U2OS [2]; [9]
  autophagy induction: -4.263%
U2OS [2]; [10]
  autophagy induction: 4.935%
U2OS [2]; [11]
  autophagy induction: -2.171%
U2OS [2]; [12]
  autophagy induction: -3.2492%
U2OS [2]; [13]
  autophagy induction: 0.6441%
U2OS [2]; [14]
  autophagy induction: 10.7185%
